# From patent US9902736B2, “1-oxo/acylation-14-acylated oridonin derivative, preparation method therefor and application thereof” (HANGZHOU BENSHENG PHARMACEUTICAL CO., LTD., priority 2012, dated 2018)
# Assays:
# [1] = test system: Kasumi-1; experiment: Leukemia cell growth inhibition, MTT, 72 h; format: cell-based; settings: Homo sapiens
# Source text: (§1) Leukemia cell lines: leukemia cell lines: K562/adr (drug-resistant, chronic myeloid leukemia, CML), NB4 (acute promyelocytic leukemia, AML), Kasumi-1 (acute myeloid leukemia M2 type, AML-M2), Jurkat (acute lymphoblastic leukemia, ALL), all of which were donated by Cancer Research Institute of Zhejiang University, China; and H9 (acute lymphoblastic leukemia, ALL), which was purchased from China Center for Type Culture Collection.
# (§2) 6000 well-growing leukemia cells were obtained and inoculated into wells of a 96-well cell culture plate. […] On the next day, the 1-oxo/acylated-14-acylated oridonin derivatives of different concentrations were added and mixed uniformly. The plate was placed in a carbon dioxide cell incubator (5% CO2) at 37° C. and was incubated for 72 hours. Then the viable cell concentration was determined by MTT method.
# [2] = test system: K562/ADR; experiment: Leukemia cell growth inhibition, MTT, 72 h; format: cell-based; settings: Homo sapiens
# Source text: as §1, §2
# [3] = test system: RPMI 8226; experiment: Multiple myeloma cell growth inhibition, MTT, 72 h; format: cell-based; settings: Homo sapiens
# Experimental: Multiple myeloma cell lines: RPMI8226 (multiple myeloma), purchased from Fuxiang Bio-tech Co. Ltd., Shanghai, China.
# 6000 well-growing cells were obtained and inoculated into wells of a 96-well cell culture plate. […] On the next day, the 1-oxo/acylated-14-acylated oridonin derivatives of different concentrations were added and mixed uniformly. The plate was placed in a carbon dioxide cell incubator (5% CO2) at 37° C. and incubated for 72 hours. Then the viable cell concentration was determined by MTT method.
# [4] = test system: A549; experiment: Solid tumor cell growth inhibition, MTT, 72 h; format: cell-based; settings: Homo sapiens
# Experimental: (§3) 6000 well-growing human solid tumor cells were obtained and inoculated into wells of a 96-well cell culture plate. The culture medium was DMEM High Glucose cell culture medium containing 10% fetal bovine serum. The plate was placed in a carbon dioxide cell incubator (5% CO2) at 37° C. and incubated for 24 hours. After added with 1-oxo/acylated-14-acylated oridonin derivatives of different concentration and mixed uniformly, the plate was placed in a carbon dioxide cell incubator (5% CO2) at 37° C. and incubated for 72 hours. Then the viable cell concentration was determined by MTT method.
# [5] = test system: PANC-1; experiment: Solid tumor cell growth inhibition, MTT, 72 h; format: cell-based; settings: Homo sapiens
# Experimental: as §3
# [6] = test system: PC-3; experiment: Solid tumor cell growth inhibition, MTT, 72 h; format: cell-based; settings: Homo sapiens
# Experimental: as §3
# [7] = test system: RKO; experiment: Solid tumor cell growth inhibition, MTT, 72 h; format: cell-based; settings: Homo sapiens
# Experimental: as §3
# [8] = test system: U87-MG; experiment: Solid tumor cell growth inhibition, MTT, 72 h; format: cell-based; settings: Homo sapiens, U-87 MG
# Experimental: as §3
# [9] = test system: CaEs-17; experiment: Solid tumor cell growth inhibition, MTT, 72 h; format: cell-based; settings: Homo sapiens, CaEs17
# Experimental: as §3
# [10] = test system: MG-63; experiment: Solid tumor cell growth inhibition, MTT, 72 h; format: cell-based; settings: Homo sapiens
# Experimental: as §3
# [11] = test system: SK-OV-3; experiment: Solid tumor cell growth inhibition, MTT, 72 h; format: cell-based; settings: Homo sapiens, SK-OV-3, 72 h, MTT; for IC50: read-out: IC50 SK-OV-3; for IC90: read-out: IC90 SK-OV-3
# Experimental: as §3
# [12] = test system: Becap-37; experiment: Solid tumor cell growth inhibition, MTT, 72 h; format: cell-based; settings: Homo sapiens
# Experimental: as §3
# [13] = test system: Hep G2; experiment: Solid tumor cell growth inhibition, MTT, 72 h; format: cell-based; settings: Homo sapiens, HepG2
# Experimental: as §3
# [14] = test system: Jurkat; experiment: Leukemia cell growth inhibition, MTT, 72 h; format: cell-based, human; settings: Homo sapiens, Jurkat; 72 h, MTT
# Source text: as §1, §2
# [15] = test system: NB4; experiment: Leukemia cell growth inhibition, MTT, 72 h; format: cell-based, human; settings: Homo sapiens, NB-4; 72 h, MTT
# Source text: as §1, §2
# [16] = test system: H9; experiment: Leukemia cell growth inhibition, MTT, 72 h; format: cell-based, human; settings: Homo sapiens, H9; 72 h, MTT
# Source text: as §1, §2
# [17] = test system: MGC-803; experiment: Solid tumor cell growth inhibition, MTT, 72 h; format: cell-based, human; settings: Homo sapiens, MGC-803; 72 h, MTT
# Experimental: as §3
# [18] = test system: CNE; experiment: Solid tumor cell growth inhibition, MTT, 72 h; format: cell-based, human; settings: Homo sapiens, CNE; 72 h, MTT
# Experimental: as §3
# [19] = test system: Hela; experiment: Solid tumor cell growth inhibition, MTT, 72 h; format: cell-based, human; settings: Homo sapiens, HeLa; 72 h, MTT
# Experimental: as §3
# [20] = test system: Hep-2; experiment: Solid tumor cell growth inhibition, MTT, 72 h; format: cell-based, human; settings: Homo sapiens, HEp-2; 72 h, MTT
# Experimental: as §3
SMILES,IC50 [1] [µg/mL],IC90 [1] [µg/mL],IC50 [2] [µg/mL],IC90 [2] [µg/mL],IC50 [3] [µg/mL],IC90 [3] [µg/mL],IC50 [4] [µg/mL],IC90 [4] [µg/mL],IC50 [5] [µg/mL],IC90 [5] [µg/mL],IC50 [6] [µg/mL],IC90 [6] [µg/mL],IC50 [7] [µg/mL],IC90 [7] [µg/mL],IC50 [8] [µg/mL],IC90 [8] [µg/mL],IC50 [9] [µg/mL],IC90 [9] [µg/mL],IC50 [10] [µg/mL],IC90 [10] [µg/mL],further results
C=C1C(=O)[C@]23[C@H](OC(=O)/C=C/c4ccccc4)[C@H]1CC[C@H]2[C@@]12CO[C@@]3(O)[C@@H](O)[C@@H]1C(C)(C)CC[C@@H]2OC(C)=O [BS-OR-094],0.72,1.72,0.7,2.17,0.49,1.75,2.87,9.95,1.82,9.91,1.66,4.52,0.38,0.75,0.6,1.86,0.94,6.26,0.47,1,IC50 [11]: 1.66 µg/mL; IC90 [11]: 4.52 µg/mL; IC50 [12]: 1.15 µg/mL; IC90 [12]: 3.31 µg/mL; IC50 [13]: 1.42 µg/mL; IC90 [13]: 7.47 µg/mL; IC50 [14]: 0.65 µg/mL; IC90 [14]: 2.68 µg/mL; IC50 [15]: 0.1 µg/mL; IC90 [15]: 0.49 µg/mL; IC50 [16]: 0.19 µg/mL; IC90 [16]: 0.49 µg/mL; IC50 [17]: 1.39 µg/mL; IC90 [17]: 12.1 µg/mL; IC50 [18]: 1.32 µg/mL; IC90 [18]: 5.04 µg/mL; IC50 [19]: 1.54 µg/mL; IC90 [19]: 4.45 µg/mL; IC50 [20]: 1.68 µg/mL; IC90 [20]: 7.46 µg/mL
C=C1C(=O)[C@]23[C@H](OC(=O)/C=C/c4ccccc4)[C@H]1CC[C@H]2[C@@]12CO[C@@]3(O)[C@@H](O)[C@@H]1C(C)(C)CCC2=O [BS-OR-019],0.58,1.55,0.43,1.74,0.34,1.7,1.66,4.43,1.53,9.62,1.41,3.86,0.38,0.89,0.77,2.43,0.89,5.62,0.35,0.79,IC50 [11]: 1.41 µg/mL; IC90 [11]: 3.86 µg/mL; IC50 [12]: 0.89 µg/mL; IC90 [12]: 8.43 µg/mL; IC50 [13]: 0.94 µg/mL; IC90 [13]: 14.6 µg/mL; IC50 [14]: 0.58 µg/mL; IC90 [14]: 2.48 µg/mL; IC50 [15]: 1.02 µg/mL; IC90 [15]: 3.66 µg/mL; IC50 [16]: 2.69 µg/mL; IC90 [16]: 5.41 µg/mL; IC50 [17]: 4.98 µg/mL; IC90 [17]: 12 µg/mL; IC50 [18]: 7.19 µg/mL; IC90 [18]: > 16 µg/mL; IC50 [19]: 1.43 µg/mL; IC90 [19]: 3.74 µg/mL; IC50 [20]: 10.7 µg/mL; IC90 [20]: > 16 µg/mL
